Columns and labels:
[1] = system: prostate of castrated male NMRI mice; test: Prostate weights of castrated mice after combined testosterone/gestagen treatment; assay type: in vivo
Protocol: The inhibition of a prostate growth that was induced by androgens and that was treated with a combination according to the invention, was also examined in the animal experiment.
To this end, 5 male NMRI mice of Møllegaard Breeding Centre Deutschland GmbH, Schönwalde weighing 28-30 g were castrated. Two weeks after the castration, testosterone propionate (TP) by itself—0.1 mg/animal—was administered to the control animals.
Also, two weeks after castration, the test animals were orally treated daily for one week with testosterone propionate (TP) 0.1 mg/animal/day s.c. and simultaneously with the following gestagens and the following dosages:
cyproterone acetate (CPA) at dosages of 0.1; 0.3; 1; 3 mg/animal/day dienogest (DNG) at dosages of 0.3; 1; 3; 10 mg/animal/day, chloromadinone acetate (CMA) at dosages 0.3; 1; 3; 10 mg/animal/day.
At the end of the test, the prostate weights of the mice were determined, and the test groups were compared.

prostate [2] = conditions: 8-month therapy, 23 men aged 40-65 years, 160 mg/day; cited from earlier work
LNCaP prostate cells = test: Inhibition of androgen-dependent cell proliferation in LNCaP prostate cells (growth assay, cell number after 7 days); assay type: cell-based, human; conditions: androgen alone, FIG. 1
Description: In the example of the inhibition of the androgen-dependent cell proliferation in LNCaP prostate cells, the biological mechanism of action of the combination of 17β-hydroxy-17α-methyl-estra-4,9,11-trien-3-one (R 1881)+the 17α-cyano-methyl-17β-hydroxy-estra-4,9-dien-3-one (DIENOGEST=DNG) was examined.
To this end, the human prostate cancer cell LNCaP was cultivated under routine conditions in Dulbecco's modified Eagle medium (DMEM) with the addition of 10% FCS (fetal calf serum).
The cells were then cultured for 2 to 6 passages with DMEM and 10% DCC-FCS (steroid-depleted FCS), before it was used in a growth assay with 5% DCC-FCS.
For the test, the cells were saturated in 24-well plates (10,000 cells/well and ml).
After 24 hours, the steroids that were dissolved in ethanol were added to fresh test medium (final concentration of ethanol 0.1%), and the cells were incubated for 7 days at 37° (5% CO2). The cell number was determined after this time in a cell counting and analysis system (CASY, Scharfe System GmbH).

prostate [3] = conditions: young men under exogenic testosterone administration; cited from earlier work

Compound: CCC(=O)O[C@H]1CC[C@H]2[C@@H]3CCC4=CC(=O)CC[C@]4(C)[C@H]3CC[C@]12C [TP, testosterone propionate]
- Effect on prostate weight compared to the castrated and the intact control animals ([1]; 0.1 mg/animal/day): causes a clear increase of the prostate weight
- Prostate weight (mean value ± S.D.) ([1]; TP 0.1 mg/animal alone (TP control), n = 5): 4.4 ± 0.7 mg

Compound: CCCCCCCCCCC(=O)O[C@H]1CC[C@H]2[C@@H]3CCC4=CC(=O)CC[C@]4(C)[C@H]3CC[C@]12C [testosterone undecanoate]
- Increase in size of the prostate (prostate [2]): 12%

Compound: C[C@]1(O)CC[C@H]2[C@@H]3CCC4=CC(=O)CCC4=C3C=C[C@@]21C [R1881, 17β-hydroxy-17α-methyl-estra-4,9,11-trien-3-one]
- Cell growth of LNCaP cells (LNCaP prostate cells): induces a cell growth

Compound: CCCCCCC(=O)O[C@H]1CC[C@H]2[C@@H]3CCC4=CC(=O)CC[C@]4(C)[C@H]3CC[C@]12C [testosterone enanthate]
- Prostate size by transrectal ultrasound (prostate [3]): an enlargement of the prostate was found
